The target of this assay is human Nav1.7 (Homo sapiens (Human), UniProt Q15858). Description: Nav 1.7 in vitro PatchXpress (PX) assay. It is filed as cell-based.

pIC50: −log10 of the molar value. Where two headings read alike, the source gives them in different places.

We go through 33 molecules from patent US9663508B2, “Biaryl acyl-sulfonamide compounds as sodium channel inhibitors” (AMGEN INC., priority 2013, dated 2017).

Sequence of human Nav1.7 (Q15858 whole entry): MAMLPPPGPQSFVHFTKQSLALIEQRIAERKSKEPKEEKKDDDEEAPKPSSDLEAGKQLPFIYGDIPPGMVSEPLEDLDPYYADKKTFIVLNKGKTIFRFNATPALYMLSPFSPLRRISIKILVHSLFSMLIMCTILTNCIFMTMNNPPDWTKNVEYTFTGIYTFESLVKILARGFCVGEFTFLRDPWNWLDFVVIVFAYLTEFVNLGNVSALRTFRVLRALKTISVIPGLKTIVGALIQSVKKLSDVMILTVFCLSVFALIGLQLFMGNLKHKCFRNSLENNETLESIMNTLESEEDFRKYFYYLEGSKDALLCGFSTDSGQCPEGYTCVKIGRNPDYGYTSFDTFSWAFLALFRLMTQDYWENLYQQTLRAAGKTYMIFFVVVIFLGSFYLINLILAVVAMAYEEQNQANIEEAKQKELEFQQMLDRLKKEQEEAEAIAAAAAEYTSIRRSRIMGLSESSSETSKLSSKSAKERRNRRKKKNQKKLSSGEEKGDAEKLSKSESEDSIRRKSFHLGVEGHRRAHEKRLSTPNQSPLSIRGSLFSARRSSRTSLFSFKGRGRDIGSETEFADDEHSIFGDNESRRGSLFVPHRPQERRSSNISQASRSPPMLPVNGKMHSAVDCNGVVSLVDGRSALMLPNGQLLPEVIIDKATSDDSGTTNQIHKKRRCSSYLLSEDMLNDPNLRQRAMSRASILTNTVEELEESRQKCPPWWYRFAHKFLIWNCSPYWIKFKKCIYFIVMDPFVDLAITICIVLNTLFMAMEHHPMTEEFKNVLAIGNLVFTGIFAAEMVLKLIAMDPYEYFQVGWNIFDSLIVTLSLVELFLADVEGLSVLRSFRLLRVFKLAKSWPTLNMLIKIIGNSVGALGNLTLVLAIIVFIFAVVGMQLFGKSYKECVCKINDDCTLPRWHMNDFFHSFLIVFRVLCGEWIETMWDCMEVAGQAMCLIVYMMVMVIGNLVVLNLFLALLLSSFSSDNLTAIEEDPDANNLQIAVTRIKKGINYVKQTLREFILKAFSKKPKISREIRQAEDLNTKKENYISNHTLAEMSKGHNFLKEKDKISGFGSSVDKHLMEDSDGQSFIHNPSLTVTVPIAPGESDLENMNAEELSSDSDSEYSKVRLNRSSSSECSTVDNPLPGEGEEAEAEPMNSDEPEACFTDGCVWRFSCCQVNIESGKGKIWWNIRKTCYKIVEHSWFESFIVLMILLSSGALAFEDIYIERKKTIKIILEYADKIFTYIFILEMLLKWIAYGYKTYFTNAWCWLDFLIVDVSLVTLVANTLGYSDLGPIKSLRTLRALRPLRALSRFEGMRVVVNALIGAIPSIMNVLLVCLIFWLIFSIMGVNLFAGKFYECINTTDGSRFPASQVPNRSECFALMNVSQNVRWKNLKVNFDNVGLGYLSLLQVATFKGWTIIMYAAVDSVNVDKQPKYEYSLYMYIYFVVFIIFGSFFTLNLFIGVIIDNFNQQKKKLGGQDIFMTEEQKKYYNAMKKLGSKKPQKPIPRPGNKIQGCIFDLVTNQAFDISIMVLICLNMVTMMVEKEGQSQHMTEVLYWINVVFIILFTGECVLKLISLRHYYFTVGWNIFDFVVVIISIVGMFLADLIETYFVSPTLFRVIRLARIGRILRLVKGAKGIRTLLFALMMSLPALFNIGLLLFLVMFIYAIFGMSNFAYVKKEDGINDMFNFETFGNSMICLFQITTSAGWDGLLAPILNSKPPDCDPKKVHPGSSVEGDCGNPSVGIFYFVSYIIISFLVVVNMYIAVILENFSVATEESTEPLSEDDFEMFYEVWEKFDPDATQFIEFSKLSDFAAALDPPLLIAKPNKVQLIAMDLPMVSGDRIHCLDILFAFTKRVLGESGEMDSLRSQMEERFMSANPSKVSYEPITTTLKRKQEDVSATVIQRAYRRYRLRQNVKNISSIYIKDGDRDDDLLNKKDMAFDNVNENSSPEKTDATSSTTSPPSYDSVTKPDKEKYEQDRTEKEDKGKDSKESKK
Description: HEK 293 cells stably transfected with human Nav1.7 were recorded in whole cell voltage clamp mode with the PatchXpress automated electrophysiology system (Molecular Devices, LLC, Sunnyvale, Calif.). Compound effects were measured on a partially inactivated state of the sodium channel. Cells were clamped to a holding potential yielding 20 to 50% inactivation. To elicit sodium current, channels were activated by pulsing to −10 mV for 20 msec. This voltage protocol was repeated at a rate of 0.1 Hz throughout the experiment. A single concentration of test compound was applied to cells for a duration of 3 minutes. Peak sodium current was measured at the end of the compound addition period to determine percent inhibition. Three to five cells were tested per concentration, and IC50 curves were fitted to percent inhibition as a function of concentration.

For the molecule `COc1ncc(F)cc1-c1cc(-c2cc(F)c(C(=O)NS(C)(=O)=O)cc2F)cnc1OCC(C)C` [Example 837, 2,5-Difluoro-4-(5′-Fluoro-2′-Methoxy-2-(2-Methylpropoxy)-3,3′-Bipyridin-5-yl)-N-(Methylsulfonyl)Benzamide], where the note is “in-vitro Nav 1.7 PX data”, the pIC50 was 6.09.

`Cc1cc(C(=O)NS(C)(=O)=O)c(F)cc1-c1cnc(Oc2ccc(F)cc2C(F)(F)F)c(Cl)c1` [Example 678, 4-(5-chloro-6-(4-fluoro-2-(trifluoromethyl)phenoxy)-3-pyridinyl)-2-fluoro-5-methyl-N-(methylsulfonyl)benzamide] had a pIC50 of 7.13.

As to `Cc1cccc(Cl)c1Oc1ncc(-c2ccc(C(=O)NS(C)(=O)=O)cc2OC(F)F)cc1Cl` [Example 468, 4-(5-chloro-6-(2-chloro-6-methylphenoxy)-3-pyridinyl)-3-(difluoromethoxy)-N-(methylsulfonyl)benzamide], the pIC50 is 7.27.

In the case of `COc1cccc(CSc2ncc(-c3cc(F)c(C(=O)NS(C)(=O)=O)cc3C)cc2Cl)c1` [Example 818, 4-(5-Chloro-6-((3-Methoxybenzyl)Thio)-Pyridin-3-yl)-2-Fluoro-5-Methyl-N-(Methylsulfonyl)Benzamide], the pIC50 (in-vitro Nav 1.7 PX data) is 6.77.

Regarding `CS(=O)(=O)NC(=O)c1ccc(-c2cnc(Oc3cc(Cl)cc(Cl)c3)c(Cl)c2)c(Cl)c1` [Example 777, 3-chloro-4-(5-chloro-6-(3,5-dichlorophenoxy)-3-pyridinyl)-N-(methylsulfonyl)benzamide], under “in-vitro Nav 1.7 PX data”, the negative-log IC50 (pIC50) was 7.40. This pIC50 is 0.63 log units higher than that of the molecule before.

Turning to `COc1cc(C(=O)NS(C)(=O)=O)c(F)cc1-c1cnc(N[C@@H]2CCC23CCC3)c(Cl)c1` [Example 722, 4-(5-chloro-6-((1R)-spiro[3.3]hept-1-ylamino)-3-pyridinyl)-2-fluoro-5-methoxy-N-(methylsulfonyl)benzamide, 4-(5-chloro-6-((1S)-spiro[3.3]hept-1-ylamino)-3-pyridinyl)-2-fluoro-5-methoxy-N-(methylsulfonyl)benzamide], the pIC50 (in-vitro Nav 1.7 PX data) was 6.96.

Consider `CS(=O)(=O)NC(=O)c1cc(F)c(-c2cnc(Oc3c(Cl)cc(Cl)cc3Cl)c(Cl)c2)cc1F` [Example 568, 4-(5-chloro-6-(2,4,6-trichlorophenoxy)-3-pyridinyl)-2,5-difluoro-N-(methylsulfonyl)benzamide], for which the pIC50 is 7.31.

On to `Cc1cc(Oc2ncc(-c3ccc(C(=O)NS(C)(=O)=O)cc3OC3COC3)cc2Cl)ccc1Cl` [Example 413, 4-(5-chloro-6-(4-chloro-3-methylphenoxy)-3-pyridinyl)-N-(methylsulfonyl)-3-(3-oxetanyloxy)benzamide], for which the pIC50 is 7.34.

Molecule `Cc1cc(C(=O)NS(C)(=O)=O)c(F)cc1-c1cnc(Oc2cccc3c2CCCC3)c(Cl)c1` [Example 610, 4-(5-chloro-6-(5,6,7,8-tetrahydro-1-naphthalenyloxy)-3-pyridinyl)-2-fluoro-5-methyl-N-(methylsulfonyl)benzamide] gave a pIC50 of 6.98.

Consider `Cc1cccc(Oc2ncc(-c3cc(F)c(C(=O)NS(C)(=O)=O)cc3C)cc2Cl)c1` [Example 621, 4-(5-chloro-6-(3-methylphenoxy)-3-pyridinyl)-2-fluoro-5-methyl-N-(methylsulfonyl)benzamide], for which the pIC50 was 6.97. The pIC50 values of the last two molecules are within 0.2 log units of each other.

For the setting “in-vitro Nav 1.7 PX data”, `Cc1cc(Cl)cc(Cl)c1Oc1ncc(-c2cc(F)c(C(=O)NS(C)(=O)=O)cc2OC(F)F)cc1Cl` [Example 782, 4-(5-chloro-6-(2,4-dichloro-6-methylphenoxy)-3-pyridinyl)-5-(difluoromethoxy)-2-fluoro-N-(methylsulfonyl)benzamide] had a pIC50 of 7.79.

`COc1cc(C(=O)NS(C)(=O)=O)c(F)cc1-c1cnc(OC(C)C2CCC2)c(Cl)c1` (stereo not drawn) [Example 719, 4-(5-Chloro-6-(1-Cyclobutylethoxy)Pyridin-3-yl)-2-Fluoro-5-Methoxy-N-(Methylsulfonyl)Benzamide] showed a pIC50 (in-vitro Nav 1.7 PX data) of 7.05.

Molecule `Cc1cc(C(=O)NS(=O)(=O)c2nccs2)c(F)cc1-c1cnc(OC2CCC2)c(Cl)c1` [Example 795, 4-(5-chloro-6-(cyclobutyloxy)-3-pyridinyl)-2-fluoro-5-methyl-N-(1,3-thiazol-2-ylsulfonyl)benzamide] had a pIC50 (in-vitro Nav 1.7 PX data) of 7.24. This pIC50 and that of the molecule before are within 0.2 log units of each other.

On to `COc1cc(C(=O)NS(C)(=O)=O)c(F)cc1-c1cnc(SCc2cc(F)ccc2F)c(Cl)c1` [Example 730, 4-(5-chloro-6-((2,5-difluorobenzyl)sulfanyl)-3-pyridinyl)-2-fluoro-5-methoxy-N-(methylsulfonyl)benzamide], for which, where the note is “in-vitro Nav 1.7 PX data”, the pIC50 was 7.23.

Molecule `COc1cc(C(=O)NS(C)(=O)=O)ccc1-c1cnc(Oc2ccc(F)c(F)c2F)c(Cl)c1` [Example 357, 4-(5-chloro-6-(2,3,4-trifluorophenoxy)-3-pyridinyl)-3-methoxy-N-(methylsulfonyl)benzamide] had a pIC50 of 7.05.

On to `COc1cc(C(=O)NS(C)(=O)=O)ccc1-c1cnc(Oc2c(C)cccc2Cl)c(Cl)c1` [Example 327, 4-(5-chloro-6-(2-chloro-6-methylphenoxy)-3-pyridinyl)-3-methoxy-N-(methylsulfonyl)benzamide], for which the pIC50 was 7.08.

In turn, “4-(3-Chloro-4′-Methoxy-2′-Methyl-[2,3′-Bipyridin]-5-yl)-2-Fluoro-5-Methyl-N-(Methyl Sulfonyl)Benzamide [Example 840]” gave a negative logarithm of the IC50 (pIC50) (in-vitro Nav 1.7 PX data) of 5.08.

`COc1cc(C(=O)NS(C)(=O)=O)ccc1-c1cnc(Oc2c(F)ccc(F)c2F)c(Cl)c1` [Example 362, 4-(5-chloro-6-(2,3,6-trifluorophenoxy)-3-pyridinyl)-3-methoxy-N-(methylsulfonyl)benzamide]: the pIC50 was 7.20.

For the molecule `Cc1cc(C(=O)NS(C)(=O)=O)c(F)cc1-c1cnc(O[C@@H](c2ccccc2)C(F)(F)F)c(Cl)c1` [Example 684, 4-(5-chloro-6-((1S)-2,2,2-trifluoro-1-phenylethoxy)-3-pyridinyl)-2-fluoro-5-methyl-N-(methylsulfonyl)benzamide], the pIC50 was 7.03.

In turn, `COc1cc(C(=O)NS(C)(=O)=O)ccc1-c1cnc(N2CCC[C@H]2C(C)C)c(Cl)c1` [Example 355, 4-(5-chloro-6-((2S)-2-(1-methylethyl)-1-pyrrolidinyl)-3-pyridinyl)-3-methoxy-N-(methylsulfonyl)benzamide] gave a pIC50 of 7.06.

Take `Cc1cc(C(=O)NS(C)(=O)=O)c(F)cc1-c1cnc(OCCC2CC2)c(Cl)c1` [Example 683, 4-(5-chloro-6-(2-cyclopropylethoxy)-3-pyridinyl)-2-fluoro-5-methyl-N-(methylsulfonyl)benzamide]: the pIC50 was 6.95.

As to `COc1cc(C(=O)NS(C)(=O)=O)ccc1-c1cnc(Oc2ccc(Cl)c(OC(F)(F)F)c2)c(Cl)c1` [Example 373, 4-(5-chloro-6-(4-chloro-3-(trifluoromethoxy)phenoxy)-3-pyridinyl)-3-methoxy-N-(methylsulfonyl)benzamide], the pIC50 is 7.18. Against the preceding molecule, the pIC50 is 0.23 log units higher.

Turning to `COc1cc(C(=O)NS(C)(=O)=O)c(F)cc1-c1cnc(Oc2c(Cl)ccc(C)c2F)c(Cl)c1` [Example 762, 4-(5-chloro-6-(6-chloro-2-fluoro-3-methylphenoxy)-3-pyridinyl)-2-fluoro-5-methoxy-N-(methylsulfonyl)benzamide], for the setting “in-vitro Nav 1.7 PX data”, the pIC50 is 7.12.

Molecule `COc1cc(C(=O)NS(C)(=O)=O)ccc1-c1cnc(Oc2c(Cl)cccc2Cl)c(Cl)c1` [Example 581, 4-(5-chloro-6-(2,6-dichlorophenoxy)-3-pyridinyl)-3-methoxy-N-(methylsulfonyl)benzamide] gave a pIC50 of 7.07.

The molecule `Cc1cc(C(=O)NS(C)(=O)=O)c(F)cc1-c1cnc(Oc2c(F)ccc(Cl)c2F)c(Cl)c1` [Example 625, 4-(5-chloro-6-(3-chloro-2,6-difluorophenoxy)-3-pyridinyl)-2-fluoro-5-methyl-N-(methylsulfonyl)benzamide] showed a pIC50 of 7.08.

With `COc1cc(C(=O)NS(C)(=O)=O)c(F)cc1-c1cnc(O[C@H]2C[C@H](C)C2)c(Cl)c1` [Example 735, 4-(5-chloro-6-((trans-3-methylcyclobutyl)oxy)-3-pyridinyl)-2-fluoro-5-methoxy-N-(methylsulfonyl)benzamide], the pIC50 (in-vitro Nav 1.7 PX data) was 7.23.

`COc1cc(C(=O)NS(C)(=O)=O)c(F)cc1-c1cnc(O[C@@H]2CCC[C@H]2C)c(Cl)c1` [Example 727, 4-(5-chloro-6-(((1R,2R)-2-methylcyclopentyl)oxy)-3-pyridinyl)-2-fluoro-5-methoxy-N-(methylsulfonyl)benzamide] had a pIC50 (in-vitro Nav 1.7 PX data) of 6.99.

For the setting “in-vitro Nav 1.7 PX data”, `COc1cc(C(=O)NS(C)(=O)=O)c(F)cc1-c1cnc(Oc2ccc(C)c(F)c2F)c(Cl)c1` [Example 746, 4-(5-chloro-6-(2,3-difluoro-4-methylphenoxy)-3-pyridinyl)-2-fluoro-5-methoxy-N-(methylsulfonyl)benzamide] had a pIC50 of 7.20. Against the preceding molecule, the pIC50 is 0.21 log units higher.

For the molecule `COc1cc(C(=O)NS(C)(=O)=O)c(F)cc1-c1cnc(Oc2cccc(Cl)c2C)c(Cl)c1` [Example 704, 4-(5-chloro-6-(3-chloro-2-methylphenoxy)-3-pyridinyl)-2-fluoro-5-methoxy-N-(methylsulfonyl)benzamide], the pIC50 is 7.33.

As for `COc1nccc(C)c1-c1cc(C(=O)NS(C)(=O)=O)ccc1-c1cnc(OCC(C)C)c(Cl)c1` [Example 820, 4-(5-Chloro-6-Isobutoxypyridin-3-yl)-3-(2-Methoxy-4-Methylpyridin-3-yl)-N-(Methylsulfonyl)Benzamide], the “NAV 1.7 PX inhibition” value (at 5 µM (5 uM)) is given as 23%.

Regarding `COc1ccc(Oc2ncc(-c3ccc(C(=O)NS(C)(=O)=O)cc3OC)cc2Cl)c(Cl)c1` [Example 365, 4-(5-chloro-6-(2-chloro-4-methoxyphenoxy)-3-pyridinyl)-3-methoxy-N-(methylsulfonyl)benzamide], the negative logarithm of the IC50 (pIC50) is 7.04.

As for `COc1cc(C(=O)NS(C)(=O)=O)c(F)cc1-c1cnc(Oc2ccc(Cl)cc2Cl)c(Cl)c1` [Example 738, 4-(5-chloro-6-(2,4-dichlorophenoxy)-3-pyridinyl)-2-fluoro-5-methoxy-N-(methylsulfonyl)benzamide], the pIC50 (in-vitro Nav 1.7 PX data) is 7.43.

Consider `CCS(=O)(=O)NC(=O)c1ccc(-c2cnc(OC3CCC3)c(Cl)c2)c(OC)c1` [Example 790, 4-(5-chloro-6-(cyclobutyloxy)-3-pyridinyl)-N-(ethylsulfonyl)-3-methoxybenzamide], for which the pIC50 (in-vitro Nav 1.7 PX data) is 6.91.
